In patent US7838495B2, “Compositions and methods of use of EPB1, and ErbB3 binding protein” (University of Maryland, Baltimore, priority 2007, dated 2010):

What was measured:
Type in all cases: cell-based, human
LNCaP cells [1] = assay: Growth response of LNCaP vector controls and EBP1 transfectants to DHT and bicalutamide; set-up: Emax: dose or concentration left out as unconfirmed
Procedure: Cell Growth Assays: To measure growth in complete media, cells (2×10^4) were seeded in triplicate in individual wells of 12-well tissue culture plates in RPMI-1640 with 10% FBS and cultured for the indicated number of days. Cells were trypsinized, stained with Trypan Blue (0.4%), and counted in a hemacytometer. For soft agar growth assays, increasing concentrations of cells (as indicated) were plated in 35 mm Petri dishes in complete media and 0.3% Difco Bacto Agar over an 0.5% agar layer. Colonies were counted after 10 days of incubation. For studies assessing the effect of dihydrotestosterone (DHT) on cell growth, cells (2×10^4) were plated in 12-well plates in complete media. After a 24-hour attachment period, the medium was replaced with steroid-free medium [phenol red-free RPMI 1640 and 5% charcoal-stripped FBS (Sigma)] for 48 hours. The final concentration of testosterone in the steroid-reduced media was less than 5 pM. After 48 hours of steroid depletion, cells were re-fed with fresh steroid-reduced medium with or without the indicated concentrations of DHT and/or bicalutamide (10 μM), and total cell numbers were assessed 7 days later.

C81 cells [2] = assay: Response of C81 transfectants to DHT and bicalutamide; details: steroid reduced medium
Procedure: FIG. 4A-C. […] Equal numbers (5×10^4) of vector or EBP1 stably transfected cells were plated at Day 0 in complete media and viable cell numbers determined at the indicated times. Each point represents mean±S.E. of 3 wells. Representative of 3 experiments (Right panel). Colony growth in soft agar. C81 cells stably transfected with either pcDNA or EBP1 were plated in soft agar at the cell densities indicated and colony numbers assessed at Day 10. Each point represents mean±S.E. of 3 dishes. Data is representative of 3 experiments. B. (Left Panel) Response of EBP1 and vector transfected C81 cells to dihydrotestosterone (DHT). EBP1 and vector control C81 transfected cells and early passage LNCaP cells were plated in complete media at 5×10^3 cells/well in 96 well plates for one day. […] Total cell numbers were determined seven days later by MTT assays. […] Total cell numbers were assessed 7 days later by MTT assay. […] Total cell numbers were determined by MTT assays 5 days later. […]
Western Blot Analysis. […] For soft agar growth assays, increasing concentrations of cells (as indicated) were plated in 35 mm Petri dishes in 0.3% agar in complete media and colonies were counted after 10 days of incubation (21). […] Relative cell growth was determined using a Promega Proliferation Reagent (Promega, Madison Wis.) as per manufacturer's instructions with absorbance being read at […] using a Dynex plate reader. […]

C81 cells [3] = assay: Sensitivity of C81 transfectants to chemotherapeutic drugs (MTT); details: for sensitivity to Docetaxel: androgen deprived conditions; for decrease of growth: 20 nM, steroid reduced media
Procedure: FIG. 4A-C. […] Equal numbers (5×10^4) of vector or EBP1 stably transfected cells were plated at Day 0 in complete media and viable cell numbers determined at the indicated times. Each point represents mean±S.E. of 3 wells. Representative of 3 experiments (Right panel). Colony growth in soft agar. C81 cells stably transfected with either pcDNA or EBP1 were plated in soft agar at the cell densities indicated and colony numbers assessed at Day 10. Each point represents mean±S.E. of 3 dishes. Data is representative of 3 experiments. B. (Left Panel) Response of EBP1 and vector transfected C81 cells to dihydrotestosterone (DHT). EBP1 and vector control C81 transfected cells and early passage LNCaP cells were plated in complete media at 5×10^3 cells/well in 96 well plates for one day. The next day, cells were switched to steroid reduced medium for two days as described in the Materials and Methods. DHT was then added at the indicated concentrations. Cells were refed media every 3 days. Total cell numbers were determined seven days later by MTT assays. Each point represents mean±S.E. of 6 wells. Data is representative of two experiments. (Right Panel) Effect of Bicalutamide on DHT stimulated growth. Cells were plated as described in the Materials and Methods. After 2 days in steroid reduced medium, cells were fed with fresh steroid reduced medium with or without 10 μM bicalutamide (Casodex) in the presence or absence of 10 nM DHT. Total cell numbers were assessed 7 days later by MTT assay. Cells were refed media every 3 days. The data shown are mean±S.E. of six wells. […] C. […] C81 vector control or EBP1 transfectants were plated in 96 well plates in complete media and allowed to attach overnight. The cells were then placed in steroid reduced media for two days and then refed with steroid reduced media in the presence of the indicated concentrations of Docetaxel (left panel) or Mitoxantrone (right panic). Total cell numbers were determined by MTT assays 5 days later. Each point represents mean±S.E. of 6 wells. Data is representative of two experiments.
Western Blot Analysis. Western blot analysis was performed as previously described (19). The Ebp1 antibody was from Upstate (Lake Placid, N.Y.), the polyclonal antibody to actin from Sigma, the AKT and phospho AKT antibodies from Cell Signaling (Beverly, Mass.) and the AGR2 antibody was previously described (20) Cell Growth Assays Cell growth measurement in complete media was performed as described using a hemocytometer (21). For soft agar growth assays, increasing concentrations of cells (as indicated) were plated in 35 mm Petri dishes in 0.3% agar in complete media and colonies were counted after 10 days of incubation (21). For studies assessing the effect of DHT, HRG or chemotherapeutic agents on cell growth, cells (5×10^3) were plated in 96 well plates in complete media. After a 24-hour attachment period, the medium was replaced with steroid free medium [phenol red free RPMI 1640 and 5% charcoal stripped fetal bovine serum (Sigma)]. After 48 hours of steroid depletion, cells were refed with fresh steroid reduced medium with or without the indicated concentrations of DHT, bicalutamide (Casodex) (10 μM), HRG or the chemotherapeutic drugs at the concentrations indicated. Relative cell growth was determined using a Promega Proliferation Reagent (Promega, Madison Wis.) as per manufacturer's instructions with absorbance being read at […] using a Dynex plate reader. […]

LNCaP cells [4] = assay: Response of A16 and C13 LNCaP cells to docetaxel (MTT)
Procedure: FIG. 7A-C. Suppression of EBP1 by shRNA promotes a hormone refractory phenotype A. Western blot analysis of Ebp1. Lysates of LNCaP cells stably transduced with a control lentivirus (A16) or an EBP1 targeted shRNA (13C) were collected and resolved by SDS-PAGE. Western blots were probed for endogenous EBP1 or ACTIN as indicated. B. Inhibition of EBP1 expression abrogates the ability of HRG to arrest growth (Left panel) Control and shRNA EBP1 targeted cells were plated in complete media at […] for one day. The next day, cells were switched to steroid reduced-media and HRG added at the indicated concentrations. Total cell numbers were determined seven days later by MTT assay. Each point represents mean±S.E. of 6 wells. Data is representative of three experiments. (Right Panel) AKT phosphorylation in EBP1 knock out cells Control (A16) or EBP 1 knock out cells (C13) were treated with HRG (20 ng/ml) for 15 mm and cell lysates assessed for the presence of phospho and total AKT as indicated. C. […] Sixteen hours later, luciferase activity was measured. […] Lysates of logarithmically growing A16 and C13 cells were resolved by SDS-PAGE and analyzed by Western blotting using antibodies to AGR2 and ACTIN as indicated. […] The viability of the cells was determined by MTT assays 5 days later. […]

MCF-7 cells = assay: Growth of MCF-7 vector control and EBP1 transfectants in response to HRG or EGF
Procedure: FIG. 9A-D. Ectopic expression of EBP1 blocks HRG-induced proliferation. (A) MCF 7 cells were stably transfected with a control Flag vector (CMV) or a FLAG-EBP1 vector (EBP1). Cells lysates were analyzed by Western blotting for FLAG and actin levels as indicated (left panel) or EBP1 and actin (right panel). (B) MCF-7 vector control (Control) or EBP1 transfected cells (EBP1) were plated in 96-well plates in complete media overnight, and then switched to media with 2% FBS and the indicated concentrations of HRGb1 as described in Section 2. Growth was determined 4 days later using a Promega Proliferation Assay. Each point represents the mean±SD for six wells. Data shown are representative of three experiments. (C) AU565 vector control (Control) or EBP1 transfected cells (EBP1) were plated in 96-well plates in complete media overnight, and then switched to media with 2% FBS and the indicated concentrations of HRGβ1. Growth was determined 4 days later using a Promega Proliferation Assay. Each point represents the mean±SD for six wells and is representative of two experiments. […] Growth was determined 4 days later using a Promega Proliferation Assay. […]
2.5. […] Protein concentrations were measured using a detergent compatible kit (Bio-Rad). […] Images were quantified using IMAGE-J software (NIH). […]

Compound: C[C@]12CCC(=O)C[C@@H]1CC[C@@H]1[C@@H]2CC[C@]2(C)[C@@H](O)CC[C@@H]12 [DHT, dihydrotestosterone]
- Emax (LNCaP cells [1]; Homo sapiens, LNCaP, read-out: maximal stimulation of growth by DHT): 250%
- stimulation of growth by DHT (LNCaP cells [1]; LNCaP EBP1 transfectants, 10^-9 M DHT): 35%
- growth response to androgen (DHT) (C81 cells [2]; EBP1 transfected C81 cells): responded to androgen in a similar manner as the original low passage LNCaP androgen sensitive cells
- growth response to androgen (DHT) (C81 cells [2]; vector control C81 cells): unresponsive

Compound: CC(=O)O[C@@]12CO[C@@H]1C[C@H](O)[C@@]1(C)C(=O)[C@H](O)C3=C(C)[C@@H](OC(=O)[C@H](O)[C@@H](NC(=O)OC(C)(C)C)c4ccccc4)C[C@@](O)([C@@H](OC(=O)c4ccccc4)[C@H]21)C3(C)C [Docetaxel]
- sensitivity to Docetaxel (C81 cells [3]; C81 cells): relatively refractory
- sensitivity to Docetaxel (C81 cells [3]; EBP1 transfected C81 cells, 5-20 nM): significantly more sensitive
- reduction in growth (LNCaP cells [4]; A16 control LNCaP cells, 5 nM): 65%
- inhibition at 0.02 µM (LNCaP cells [4]; Homo sapiens, C13 EBP1 knock down LNCaP cells, 20 nM, read-out: maximum growth inhibition): 15%

Compound: O=C1c2c(O)ccc(O)c2C(=O)c2c(NCCNCCO)ccc(NCCNCCO)c21 [Mitoxantrone]
- decrease of growth (C81 cells [3]; C81 EBP1 transfectants): approximately 80%
- decrease of growth (C81 cells [3]; C81 vector controls): 40%
- concentration at which sensitivity plateaued (C81 cells [3]; both vector control and EBP1 transfectants): 20 nM

Compound: EGF: growth factor from Sigma used to stimulate MCF-7 growth
- growth response to EGF (MCF-7 cells; MCF-7 EBP1 transfected cells): growth stimulated by EGF to the same extent as control cells
- growth response to EGF (MCF-7 cells; MCF-7 control cells): able to respond to EGF
